Assay results: PMC6261997, “Synergistic enzymatic and bioorthogonal reactions for selective prodrug activation in living systems” (Nature Communications, 2018)

System: HeLa cells
Assay: Intracellular Tz accumulation by fluorescence liberation from TCO-CMR, HeLa cells
Type: cell-based
Procedure: Next, we tested the intracellular accumulation of Tz via EISA in an attempt to differentiate cancer cells from normal cells. First, we investigated the accumulation of Tz in HeLa cells and HUVECs over time via fluorescence liberation from TCO-CMR (Fig. 3a). […] The cells were then washed with PBS thoroughly before the addition of an excessive amount of TCO-CMR (100 μL, 50 μM), and the reaction of TCO-CMR with the intracellular accumulated Tz was allowed to proceed for up to 24 h (Supplementary Fig. 8). In this experimental setting, the total liberated fluorescence was proportional to the amount of 3 accumulated inside the cells. […] Therefore, the optimized concentration of 2 (e.g. 500 μM) and incubation time (e.g. 6 h) were selected to differentiate between cancer and normal cells according to liberated fluorescence intensity (Fig. 3c). This differentiation was dependent on the considerably different phosphatase activity between these cell lines (Supplementary Fig. 11), allowing EISA to specifically occur in cancer cells as opposed to normal cells.
All cells were purchased from the National Infrastructure of Cell Line Resource (Beijing, China). HeLa cells, HUVECs and CCC-HEH-2 cells were cultured in a humidified CO2 (5%) incubator at 37 °C in DMEM supplemented with 10% foetal bovine serum (FBS, Gibco) and 1% Pen Strep (PS, Gibco). Saos-2 cells were cultured in a humidified CO2 (5%) incubator at 37 °C in McCoy’s 5A medium supplemented with 10% FBS and 1% PS. Cells were plated in flat-bottom 96-well plates (Corning) at a density of 10^4 cells per well and allowed to attach for 12 h. Then, the culture medium was replaced with 100 μL of pre-warmed medium containing 2 at different concentrations (100–500 μM). After incubation for different durations (1–24 h), the cells were rinsed with PBS, and then 100 μL of 50 μM TCO-CMR (dissolved in PBS) was added for real-time detection of the fluorescence intensity of coumarin in a plate reader (Perkin Elmer).

Which “incubation time at which liberated fluorescence reaches maximum value” (500 μM 2, then 50 μM TCO-CMR) does the source give for Cc1nnc(-c2ccc(CC(=O)NCCCCC(NC(=O)Cc3ccc4ccccc4c3)C(=O)NC(Cc3ccc(OP(=O)(O)O)cc3)C(=O)NC(Cc3ccccc3)C(=O)O)cc2)nn1 (centres unmarked) [compound 2, NapK(Tz)YpF] here?
Its value is “approximately 6 h”.

What about the “fluorescence emission of liberated coumarin in HeLa cells” value (pre-incubated with 400 or 500 μM 2) of the same compound?
Its value is “increased significantly”.
